Measurements: patent US12102089B2, “Method for inactivating mold spores” (DSM IP ASSETS B.V., priority 2017, dated 2024)

Test system: Talaromyces emersonii (CBS 236.58)
Assay: Heat treatment of Talaromyces emersonii spores in ice tea with natamycin, visual growth
Type: cell-based
Set-up: key to growth or no growth: growth (+); no growth (−)
Description: Commercially available ice tea (Lipton, peach flavor, non-carbonated, 1.5 L) was adjusted to high water hardness by adding 1 ml of a solution of 39 g CaCl2 and 27 g MgCl2 added to 934 g water. ⅓ of this ice tea preparation (the pH of which was 3.15) was left as-such, ⅓ of the preparation was enriched with 5 ppm natamycin and ⅓ of the preparation was enriched with 10 ppm natamycin. Samples of 5 ml were made from each preparation in 15 ml sterile plastic tubes. Of each preparation 8 samples were pre-heated to the desired pasteurization temperature using a water bath. Temperatures used were RT, 60, 65, 70, 75, 80, 85 and 90° C. When the desired temperature was reached, 100 μl of a 2500 spores/ml spore suspension of Aspergillus niger ATCC 9029AA was added to each tube. Subsequently, the samples were kept for 30 seconds at the temperature in question in the water bath. Next, the samples were cooled on ice to a temperature of 25° C. Samples were incubated at 25° C. and visually examined for growth (formation of mold flakes or turbidity) for two months. Additionally, samples were enumerated according to ISO protocol 21527-1.2008 on day 0 (before heat treatment) and day 1 (after heat treatment) to count immediate loss of viability. […] For the results, see Table 1. […] Example 1 was repeated however with Talaromyces emersonii (CBS 236.58, 1000 spores/ml) instead of Aspergillus niger.

Structure (SMILES): C[C@@H]1C/C=C/C=C/C=C/C=C/[C@H](O[C@@H]2O[C@H](C)[C@@H](O)[C@H](N)[C@@H]2O)C[C@@H]2O[C@](O)(C[C@@H](O)C[C@H]3O[C@@H]3/C=C/C(=O)O1)C[C@H](O)[C@H]2C(=O)O [natamycin]
- growth or no growth (60°C, 5 ppm, day 1): −
- growth or no growth (60°C, 5 ppm, day 2): −
- growth or no growth (60°C, 5 ppm, day 3): −
- growth or no growth (60°C, 5 ppm, day 4): −
- growth or no growth (60°C, 5 ppm, day 5): −
- growth or no growth (60°C, 5 ppm, day 6): −
- growth or no growth (60°C, 5 ppm, day 7): −
- growth or no growth (60°C, 5 ppm, day 8): −
- growth or no growth (60°C, 5 ppm, day 9): −
- growth or no growth (60°C, 5 ppm, day 10): −
- growth or no growth (60°C, 5 ppm, day 11): −
- growth or no growth (60°C, 5 ppm, day 12): −
- growth or no growth (60°C, 5 ppm, day 13): −
- growth or no growth (60°C, 5 ppm, day 14): −
- growth or no growth (60°C, 10 ppm, day 1): −
- growth or no growth (60°C, 10 ppm, day 2): −
- growth or no growth (60°C, 10 ppm, day 3): −
- growth or no growth (60°C, 10 ppm, day 4): −
- growth or no growth (60°C, 10 ppm, day 5): −
- growth or no growth (60°C, 10 ppm, day 6): −
- growth or no growth (60°C, 10 ppm, day 7): −
- growth or no growth (60°C, 10 ppm, day 8): −
- growth or no growth (60°C, 10 ppm, day 9): −
- growth or no growth (60°C, 10 ppm, day 10): −
- growth or no growth (60°C, 10 ppm, day 11): −
- growth or no growth (60°C, 10 ppm, day 12): −
- growth or no growth (60°C, 10 ppm, day 13): −
- growth or no growth (60°C, 10 ppm, day 14): −
- growth or no growth (65°C, 5 ppm, day 1): −
- growth or no growth (65°C, 5 ppm, day 2): −
- growth or no growth (65°C, 5 ppm, day 3): −
- growth or no growth (65°C, 5 ppm, day 4): +
- growth or no growth (65°C, 5 ppm, day 5): +
- growth or no growth (65°C, 5 ppm, day 6): +
- growth or no growth (65°C, 5 ppm, day 7): +
- growth or no growth (65°C, 5 ppm, day 8): +
- growth or no growth (65°C, 5 ppm, day 9): +
- growth or no growth (65°C, 5 ppm, day 10): +
- growth or no growth (65°C, 5 ppm, day 11): +
- growth or no growth (65°C, 5 ppm, day 12): +
- growth or no growth (65°C, 5 ppm, day 13): +
- growth or no growth (65°C, 5 ppm, day 14): +
- growth or no growth (65°C, 10 ppm, day 1): −
- growth or no growth (65°C, 10 ppm, day 2): −
- growth or no growth (65°C, 10 ppm, day 3): −
- growth or no growth (65°C, 10 ppm, day 4): −
- growth or no growth (65°C, 10 ppm, day 5): −
- growth or no growth (65°C, 10 ppm, day 6): −
- growth or no growth (65°C, 10 ppm, day 7): −
- growth or no growth (65°C, 10 ppm, day 8): −
- growth or no growth (65°C, 10 ppm, day 9): −
- growth or no growth (65°C, 10 ppm, day 10): −
- growth or no growth (65°C, 10 ppm, day 11): −
- growth or no growth (65°C, 10 ppm, day 12): −
- growth or no growth (65°C, 10 ppm, day 13): −
- growth or no growth (65°C, 10 ppm, day 14): −
- growth or no growth (70°C, 5 ppm, day 1): −
- growth or no growth (70°C, 5 ppm, day 2): −
- growth or no growth (70°C, 5 ppm, day 3): −
- growth or no growth (70°C, 5 ppm, day 4): −
- growth or no growth (70°C, 5 ppm, day 5): −
- growth or no growth (70°C, 5 ppm, day 6): −
- growth or no growth (70°C, 5 ppm, day 7): −
- growth or no growth (70°C, 5 ppm, day 8): −
- growth or no growth (70°C, 5 ppm, day 9): −
- growth or no growth (70°C, 5 ppm, day 10): −
- growth or no growth (70°C, 5 ppm, day 11): −
- growth or no growth (70°C, 5 ppm, day 12): −
- growth or no growth (70°C, 5 ppm, day 13): −
- growth or no growth (70°C, 5 ppm, day 14): −
- growth or no growth (70°C, 10 ppm, day 1): −
- growth or no growth (70°C, 10 ppm, day 2): −
- growth or no growth (70°C, 10 ppm, day 3): −
- growth or no growth (70°C, 10 ppm, day 4): −
- growth or no growth (70°C, 10 ppm, day 5): −
- growth or no growth (70°C, 10 ppm, day 6): −
- growth or no growth (70°C, 10 ppm, day 7): −
- growth or no growth (70°C, 10 ppm, day 8): −
- growth or no growth (70°C, 10 ppm, day 9): −
- growth or no growth (70°C, 10 ppm, day 10): −
- growth or no growth (70°C, 10 ppm, day 11): −
- growth or no growth (70°C, 10 ppm, day 12): −
- growth or no growth (70°C, 10 ppm, day 13): −
- growth or no growth (70°C, 10 ppm, day 14): −
- germination (75° C., 10 ppm natamycin): no germination occurred
- growth or no growth (75°C, 5 ppm, day 9): +
- growth or no growth (75°C, 5 ppm, day 10): +
- germination (85° C., both concentrations (5 and 10 ppm)): no germination occurred
- germination (RT, 5 or 10 ppm natamycin): delayed germination
- growth or no growth (RT, 10 ppm, day 1): −
- growth or no growth (RT, 10 ppm, day 2): −
- growth or no growth (RT, 10 ppm, day 3): −
- growth or no growth (RT, 10 ppm, day 4): −
- growth or no growth (RT, 10 ppm, day 5): −
- growth or no growth (RT, 10 ppm, day 6): −
- growth or no growth (RT, 10 ppm, day 7): +
- growth or no growth (RT, 10 ppm, day 8): +
- growth or no growth (RT, 10 ppm, day 9): +
- growth or no growth (RT, 10 ppm, day 10): +
- growth or no growth (RT, 10 ppm, day 11): +
- growth or no growth (RT, 10 ppm, day 12): +
- growth or no growth (RT, 10 ppm, day 13): +
- growth or no growth (RT, 10 ppm, day 14): +
